Test results from ChEMBL document CHEMBL4414679, “Discovery of 4,6-pyrimidinediamine derivatives as novel dual EGFR/FGFR inhibitors aimed EGFR/FGFR1-positive NSCLC” (Eur J Med Chem, 2020).
Each block holds one compound with its values, some of them ahead of it. Calls of active or inactive are those of the source. No cut-off for these calls is given here.

Columns and labels:
[1] = target: T1, Epidermal growth factor receptor (Homo sapiens, UniProt P00533); experiment: Inhibition of N-terminal GST-tagged human EGFR (d746-750AA) expressed in baculovirus at 10 uM using FAM-labelled peptide as substrate pre-incubated for 10 mins followed by substrate addition by mobility shift assay relative to control
T1 sequence (P00533 whole entry): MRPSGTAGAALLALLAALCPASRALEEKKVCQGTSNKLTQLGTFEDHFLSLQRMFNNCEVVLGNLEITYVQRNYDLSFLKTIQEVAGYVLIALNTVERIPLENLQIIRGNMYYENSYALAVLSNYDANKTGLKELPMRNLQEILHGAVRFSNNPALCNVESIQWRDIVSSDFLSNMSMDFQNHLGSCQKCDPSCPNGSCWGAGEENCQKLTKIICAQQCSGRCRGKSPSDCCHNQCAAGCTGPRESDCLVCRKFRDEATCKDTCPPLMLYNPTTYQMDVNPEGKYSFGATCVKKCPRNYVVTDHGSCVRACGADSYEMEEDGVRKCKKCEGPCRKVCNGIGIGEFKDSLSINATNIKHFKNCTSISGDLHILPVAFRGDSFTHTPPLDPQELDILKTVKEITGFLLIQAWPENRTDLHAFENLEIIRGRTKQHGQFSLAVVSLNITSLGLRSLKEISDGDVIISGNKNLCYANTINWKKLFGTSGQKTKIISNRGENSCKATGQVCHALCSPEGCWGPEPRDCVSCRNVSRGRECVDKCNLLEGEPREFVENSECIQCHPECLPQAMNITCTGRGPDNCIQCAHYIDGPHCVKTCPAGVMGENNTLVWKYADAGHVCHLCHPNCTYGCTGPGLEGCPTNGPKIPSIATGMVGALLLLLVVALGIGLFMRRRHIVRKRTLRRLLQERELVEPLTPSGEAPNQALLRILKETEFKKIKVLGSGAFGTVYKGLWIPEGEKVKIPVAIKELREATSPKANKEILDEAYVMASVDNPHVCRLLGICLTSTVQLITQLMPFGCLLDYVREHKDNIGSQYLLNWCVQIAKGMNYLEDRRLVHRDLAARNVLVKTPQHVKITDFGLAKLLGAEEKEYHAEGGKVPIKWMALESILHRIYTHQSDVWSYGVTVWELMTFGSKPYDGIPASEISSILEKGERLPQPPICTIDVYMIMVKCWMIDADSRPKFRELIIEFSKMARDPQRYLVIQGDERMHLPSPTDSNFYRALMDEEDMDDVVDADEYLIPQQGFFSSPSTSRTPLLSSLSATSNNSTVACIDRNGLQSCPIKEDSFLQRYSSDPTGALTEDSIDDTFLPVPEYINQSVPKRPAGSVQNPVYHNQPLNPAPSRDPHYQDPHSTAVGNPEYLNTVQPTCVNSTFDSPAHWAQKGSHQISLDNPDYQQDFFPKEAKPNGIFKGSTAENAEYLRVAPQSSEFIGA

NCI-H226 [2] = experiment: Antiproliferative activity against human NCI-H226 cells incubated for 48 hrs by MTT assay; assay type: functional, cell-based; conditions: NCI-H226, 48 h
PC-9 [3] = experiment: Antiproliferative activity against human PC9 cells incubated for 48 hrs by MTT assay; assay type: functional, cell-based; conditions: PC-9, 48 h
NCI-H520 [4] = experiment: Antiproliferative activity against human NCI-H520 cells assessed as inhibition of cell growth at 10 uM incubated for 48 hrs by MTT assay relative to control; assay type: functional; conditions: NCI-H520, 48 h
[5] = target: T1, Epidermal growth factor receptor; experiment: Inhibition of N-terminal GST-tagged human EGFR cytoplasmic domain (669-1210 AA) expressed in baculovirus at 10 uM using FAM-labelled peptide as substrate pre-incubated for 10 mins followed by substrate addition by mobility shift assay relative to control
PC-9 [6] = experiment: Antiproliferative activity against human PC9 cells assessed as inhibition of cell growth at 10 uM incubated for 48 hrs by MTT assay relative to control; assay type: functional; conditions: PC-9, 48 h
NCI-H520 [7] = experiment: Antiproliferative activity against human NCI-H520 cells incubated for 48 hrs by MTT assay; assay type: functional, cell-based; conditions: NCI-H520, 48 h
[8] = target: T2, Fibroblast growth factor receptor 1 (Homo sapiens, UniProt P11362); experiment: Inhibition of N-terminal GST-tagged human FGFR1 cytoplasmic domain (398-822 AA) expressed in baculovirus at 10 uM using FAM-labelled peptide as substrate pre-incubated for 10 mins followed by substrate addition by mobility shift assay relative to control
Target sequence in this assay (P11362 22-822 limits assumed): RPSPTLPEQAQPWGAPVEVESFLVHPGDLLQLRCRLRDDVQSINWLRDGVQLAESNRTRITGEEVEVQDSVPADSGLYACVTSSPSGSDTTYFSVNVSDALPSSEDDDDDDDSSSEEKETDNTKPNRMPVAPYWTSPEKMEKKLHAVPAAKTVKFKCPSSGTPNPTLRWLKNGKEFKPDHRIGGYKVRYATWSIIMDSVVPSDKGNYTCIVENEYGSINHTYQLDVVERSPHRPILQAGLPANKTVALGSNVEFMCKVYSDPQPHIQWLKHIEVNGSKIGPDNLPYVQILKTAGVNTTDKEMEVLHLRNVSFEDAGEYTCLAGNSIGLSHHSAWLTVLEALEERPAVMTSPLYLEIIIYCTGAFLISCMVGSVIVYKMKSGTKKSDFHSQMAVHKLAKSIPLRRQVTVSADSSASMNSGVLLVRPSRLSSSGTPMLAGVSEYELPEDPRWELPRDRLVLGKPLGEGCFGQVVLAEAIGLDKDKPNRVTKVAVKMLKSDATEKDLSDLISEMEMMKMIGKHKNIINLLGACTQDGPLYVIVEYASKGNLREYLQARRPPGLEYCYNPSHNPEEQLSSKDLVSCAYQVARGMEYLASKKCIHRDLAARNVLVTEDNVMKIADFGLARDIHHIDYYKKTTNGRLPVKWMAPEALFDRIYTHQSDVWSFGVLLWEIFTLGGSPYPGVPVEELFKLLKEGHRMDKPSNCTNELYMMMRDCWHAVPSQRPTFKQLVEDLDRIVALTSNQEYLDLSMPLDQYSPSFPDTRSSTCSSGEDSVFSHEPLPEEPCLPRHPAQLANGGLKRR

HCC827 [9] = experiment: Antiproliferative activity against human HCC827 cells incubated for 48 hrs by MTT assay; assay type: functional, cell-based; conditions: HCC827, 48 h
NCI-H1581 [10] = experiment: Antiproliferative activity against human NCI-H1581 cells incubated for 48 hrs by MTT assay; assay type: functional, cell-based; conditions: NCI-H1581, 48 h
NCI-H226 [11] = experiment: Antiproliferative activity against human NCI-H226 cells assessed as inhibition of cell growth at 10 uM incubated for 48 hrs by MTT assay relative to control; assay type: functional; conditions: NCI-H226, 48 h
HCC827 [12] = experiment: Antiproliferative activity against human HCC827 cells assessed as inhibition of cell growth at 10 uM incubated for 48 hrs by MTT assay relative to control; assay type: functional; conditions: HCC827, 48 h
[13] = tested on: Epidermal growth factor receptor (Homo sapiens), P00533 [L858R]; experiment: Inhibition of recombinant human EGFR L858R mutant expressed in baculovirus at 10 uM using FAM-labelled peptide as substrate pre-incubated for 10 mins followed by substrate addition by mobility shift assay relative to control
Sequence of Epidermal growth factor receptor (Homo sapiens), P00533 [L858R] (P00533 whole entry L858R): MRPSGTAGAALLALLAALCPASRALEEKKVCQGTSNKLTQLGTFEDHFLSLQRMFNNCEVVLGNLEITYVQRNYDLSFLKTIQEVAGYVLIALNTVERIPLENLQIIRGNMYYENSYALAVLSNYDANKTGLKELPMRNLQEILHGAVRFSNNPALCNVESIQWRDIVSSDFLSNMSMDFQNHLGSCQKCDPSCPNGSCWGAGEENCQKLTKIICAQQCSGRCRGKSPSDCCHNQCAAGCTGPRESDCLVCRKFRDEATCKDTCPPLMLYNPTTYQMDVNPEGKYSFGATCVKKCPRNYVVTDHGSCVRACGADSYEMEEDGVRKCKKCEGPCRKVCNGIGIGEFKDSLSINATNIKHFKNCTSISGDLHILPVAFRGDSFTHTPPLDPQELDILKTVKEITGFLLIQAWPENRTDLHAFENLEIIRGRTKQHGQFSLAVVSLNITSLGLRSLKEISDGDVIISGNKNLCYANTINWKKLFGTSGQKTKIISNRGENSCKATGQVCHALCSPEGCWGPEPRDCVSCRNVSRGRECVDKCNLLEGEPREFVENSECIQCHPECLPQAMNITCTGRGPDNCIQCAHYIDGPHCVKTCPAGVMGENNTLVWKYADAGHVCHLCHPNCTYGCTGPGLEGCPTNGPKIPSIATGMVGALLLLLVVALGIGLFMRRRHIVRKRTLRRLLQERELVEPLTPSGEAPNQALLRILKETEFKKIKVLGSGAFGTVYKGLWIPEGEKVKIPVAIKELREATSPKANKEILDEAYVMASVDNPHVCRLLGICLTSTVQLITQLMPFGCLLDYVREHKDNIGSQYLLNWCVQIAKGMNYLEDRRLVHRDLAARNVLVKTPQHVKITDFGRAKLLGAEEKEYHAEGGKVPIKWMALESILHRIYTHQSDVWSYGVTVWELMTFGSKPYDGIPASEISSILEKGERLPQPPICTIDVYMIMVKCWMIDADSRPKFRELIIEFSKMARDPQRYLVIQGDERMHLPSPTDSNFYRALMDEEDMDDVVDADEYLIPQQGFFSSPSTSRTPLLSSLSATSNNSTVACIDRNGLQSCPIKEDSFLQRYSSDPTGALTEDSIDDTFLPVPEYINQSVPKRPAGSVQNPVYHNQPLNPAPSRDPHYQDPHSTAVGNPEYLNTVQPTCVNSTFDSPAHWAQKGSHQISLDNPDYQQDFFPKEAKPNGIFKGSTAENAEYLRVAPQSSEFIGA

NCI-H1581 [14] = experiment: Antiproliferative activity against human NCI-H1581 cells assessed as inhibition of cell growth at 10 uM incubated for 48 hrs by MTT assay relative to control; assay type: functional; conditions: NCI-H1581, 48 h
[15] = target: Epidermal growth factor receptor (Homo sapiens, UniProt P00533, L858R); experiment: Inhibition of recombinant human EGFR L858R mutant expressed in baculovirus using FAM-labelled peptide as substrate pre-incubated for 10 mins followed by substrate addition by mobility shift assay
[16] = target: T1, Epidermal growth factor receptor; experiment: Inhibition of N-terminal GST-tagged human EGFR (d746-750AA) expressed in baculovirus using FAM-labelled peptide as substrate pre-incubated for 10 mins followed by substrate addition by mobility shift assay
[17] = target: T1, Epidermal growth factor receptor; experiment: Inhibition of N-terminal GST-tagged human EGFR cytoplasmic domain (669-1210 AA) expressed in baculovirus using FAM-labelled peptide as substrate pre-incubated for 10 mins followed by substrate addition by mobility shift assay
[18] = target: T2, Fibroblast growth factor receptor 1; experiment: Inhibition of N-terminal GST-tagged human FGFR1 cytoplasmic domain (398-822 AA) expressed in baculovirus using FAM-labelled peptide as substrate pre-incubated for 10 mins followed by substrate addition by mobility shift assay
Target sequence in this assay (P11362 whole entry, the tested form may be a part): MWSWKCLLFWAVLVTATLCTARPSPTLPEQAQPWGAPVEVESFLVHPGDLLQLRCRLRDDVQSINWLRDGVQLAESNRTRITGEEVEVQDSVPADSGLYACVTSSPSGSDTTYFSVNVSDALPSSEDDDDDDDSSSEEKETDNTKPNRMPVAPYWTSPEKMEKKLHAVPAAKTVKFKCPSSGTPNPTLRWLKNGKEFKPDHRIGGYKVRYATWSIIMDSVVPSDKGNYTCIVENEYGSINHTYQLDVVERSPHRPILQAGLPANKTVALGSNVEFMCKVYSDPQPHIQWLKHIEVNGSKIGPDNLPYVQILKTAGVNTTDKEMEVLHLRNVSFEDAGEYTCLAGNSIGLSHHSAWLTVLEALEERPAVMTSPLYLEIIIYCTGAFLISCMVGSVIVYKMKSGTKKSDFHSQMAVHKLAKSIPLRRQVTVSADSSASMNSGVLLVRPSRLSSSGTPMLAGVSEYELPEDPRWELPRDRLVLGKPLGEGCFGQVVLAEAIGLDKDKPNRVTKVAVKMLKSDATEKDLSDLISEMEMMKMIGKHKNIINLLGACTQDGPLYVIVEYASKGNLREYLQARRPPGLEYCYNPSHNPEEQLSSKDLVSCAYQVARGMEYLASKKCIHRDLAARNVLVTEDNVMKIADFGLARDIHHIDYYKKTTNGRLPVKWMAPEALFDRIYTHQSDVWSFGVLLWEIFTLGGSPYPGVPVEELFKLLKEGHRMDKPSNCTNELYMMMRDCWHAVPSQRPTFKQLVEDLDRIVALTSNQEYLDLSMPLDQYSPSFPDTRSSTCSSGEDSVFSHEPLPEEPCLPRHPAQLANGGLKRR

[19] = target: T2, Fibroblast growth factor receptor 1; conditions: 10 uM
Target sequence in this assay (P11362 22-822 limits assumed): as the sequence (P11362 22-822 limits assumed) above
Description: Inhibition of FGF-induced FGFR1 phosphorylation in serum-starved human H520 cells at 10 uM incubated for 1 hr by Western blot analysis

[20] = target: T2, Fibroblast growth factor receptor 1; conditions: 10 uM; remark: listed apart in the source
Target sequence in this assay (P11362 22-822 limits assumed): as above
Description: Inhibition of FGFR in serum-starved human H520 cells assessed as reduction in FGFR-induced AKT phosphorylation at 10 uM incubated for 1 hr by Western blot analysis

SMILES: COc1cc(NC(=O)Nc2cc(Nc3cc(OC)ccc3OC)ncn2)cc(OC)c1
inhibition [1]: 65.7%
IC50 (NCI-H226 [2]): 7.39 µM
IC50 (PC-9 [3]): 5.92 µM
inhibition at 10 µM (NCI-H520 [4]): 34%
inhibition [5]: 63.3%
inhibition at 10 µM (PC-9 [6]): 59.5%
IC50 (NCI-H520 [7]): 7.52 µM
inhibition [8]: 3.4%
IC50 (HCC827 [9]): 3.24 µM
IC50 (NCI-H1581 [10]): 8.39 µM
inhibition at 10 µM (NCI-H226 [11]): 41.1%
inhibition at 10 µM (HCC827 [12]): 63%
inhibition [13]: 60%
inhibition at 10 µM (NCI-H1581 [14]): 40.7%

SMILES: COc1cc(NC(=O)Nc2cc(Nc3cc(C(F)(F)F)ccc3OC)ncn2)cc(OC)c1
inhibition [1]: 54.2%
IC50 (NCI-H226 [2]): 14.6 µM
IC50 (PC-9 [3]): 6.22 µM
inhibition at 10 µM (NCI-H520 [4]): 63%
inhibition [5]: 74.6%
inhibition at 10 µM (PC-9 [6]): 81.1%
IC50 (NCI-H520 [7]): 4.45 µM
inhibition [8]: 11%
IC50 (HCC827 [9]): 15.1 µM
IC50 (NCI-H1581 [10]): 7.35 µM
inhibition at 10 µM (NCI-H226 [11]): 60%
inhibition at 10 µM (HCC827 [12]): 59.7%
inhibition [13]: 73.1%
inhibition at 10 µM (NCI-H1581 [14]): 67%

SMILES: COc1cc(NC(=O)Nc2cc(Nc3cc(OC)cc(OC)c3)ncn2)cc(OC)c1
inhibition [1]: 56.7%
IC50 (NCI-H226 [2]): 8.32 µM
IC50 (PC-9 [3]): 3.83 µM
inhibition at 10 µM (NCI-H520 [4]): 40.5%
inhibition [5]: 66.2%
inhibition at 10 µM (PC-9 [6]): 76.5%
IC50 (NCI-H520 [7]): 10.8 µM
inhibition [8]: 10.6%
IC50 (HCC827 [9]): 4.25 µM
IC50 (NCI-H1581 [10]): 7.34 µM
inhibition at 10 µM (NCI-H226 [11]): 38.3%
inhibition at 10 µM (HCC827 [12]): 51.3%
inhibition [13]: 51.7%
inhibition at 10 µM (NCI-H1581 [14]): 40.7%

SMILES: COc1cc(NC(=O)Nc2cc(Nc3cc(I)ccc3OC)ncn2)cc(OC)c1
inhibition [1]: 60.2%
IC50 (NCI-H226 [2]): 19.4 µM
IC50 (PC-9 [3]): 3.54 µM
inhibition at 10 µM (NCI-H520 [4]): 55%
inhibition [5]: 58.7%
inhibition at 10 µM (PC-9 [6]): 91%
IC50 (NCI-H520 [7]): 9.87 µM
inhibition [8]: -2.1%
IC50 (HCC827 [9]): > 20 µM
IC50 (NCI-H1581 [10]): 8.86 µM
inhibition at 10 µM (NCI-H226 [11]): 56.7%
inhibition at 10 µM (HCC827 [12]): 71%
inhibition [13]: 74%
inhibition at 10 µM (NCI-H1581 [14]): 59%

SMILES: COc1cc(Nc2cc(NC(=O)Nc3c(Cl)cccc3Cl)ncn2)cc(OC)c1
inhibition [1]: 84.2%
IC50 (NCI-H226 [2]): 16.9 µM
IC50 [15]: 0.49 µM
IC50 (PC-9 [3]): 3.18 µM
IC50 [16]: 0.332 µM
inhibition at 10 µM (NCI-H520 [4]): 55.5%
inhibition [5]: 87.3%
inhibition at 10 µM (PC-9 [6]): 90%
IC50 (NCI-H520 [7]): 10.5 µM
IC50 [17]: 0.315 µM
inhibition [8]: 74.2%
IC50 (HCC827 [9]): 13.3 µM
IC50 (NCI-H1581 [10]): 5.32 µM
inhibition at 10 µM (NCI-H226 [11]): 60%
inhibition at 10 µM (HCC827 [12]): 73.7%
inhibition [13]: 79.4%
IC50 [18]: 1.1 µM
inhibition at 10 µM (NCI-H1581 [14]): 68%

inhibition [19]: Active
inhibition [20]: Active
SMILES: CCN1CCN(c2ccc(Nc3cc(N(C)C(=O)Nc4c(Cl)c(OC)cc(OC)c4Cl)ncn3)cc2)CC1 [INFIGRATINIB]
inhibition at 10 µM (NCI-H520 [4]): 77.1%
inhibition at 10 µM (PC-9 [6]): 55.5%
inhibition at 10 µM (NCI-H226 [11]): 67.3%
inhibition at 10 µM (HCC827 [12]): 32%
inhibition at 10 µM (NCI-H1581 [14]): 83.7%

SMILES: Cc1cc(F)cc(Nc2cc(NC(=O)Nc3c(Cl)cccc3Cl)ncn2)c1
inhibition [1]: 89.7%
IC50 (NCI-H226 [2]): 2.96 µM
IC50 [15]: 0.174 µM
IC50 (PC-9 [3]): 2.79 µM
IC50 [16]: 0.253 µM
inhibition at 10 µM (NCI-H520 [4]): 60.5%
inhibition [5]: 79.2%
inhibition at 10 µM (PC-9 [6]): 80%
IC50 (NCI-H520 [7]): 3.78 µM
IC50 [17]: 0.528 µM
inhibition [8]: 70.3%
IC50 (HCC827 [9]): 18.6 µM
IC50 (NCI-H1581 [10]): 4.78 µM
inhibition at 10 µM (NCI-H226 [11]): 78.1%
inhibition at 10 µM (HCC827 [12]): 49.1%
inhibition [13]: 91.9%
IC50 [18]: 1.22 µM
inhibition at 10 µM (NCI-H1581 [14]): 65%

SMILES: COc1cc(NC(=O)Nc2cc(Nc3ccc(OC)c(I)c3)ncn2)cc(OC)c1
inhibition [1]: 43.6%
inhibition at 10 µM (NCI-H520 [4]): 46.5%
inhibition [5]: 31.4%
inhibition at 10 µM (PC-9 [6]): 47%
inhibition [8]: 10.3%
inhibition at 10 µM (NCI-H226 [11]): 40.1%
inhibition at 10 µM (HCC827 [12]): 61.7%
inhibition [13]: 46%
inhibition at 10 µM (NCI-H1581 [14]): 43%

SMILES: CCc1ccc(Nc2cc(NC(=O)Nc3c(Cl)cccc3Cl)ncn2)cc1
inhibition [1]: 89.2%
inhibition at 10 µM (NCI-H520 [4]): 31.5%
inhibition [5]: 79%
inhibition at 10 µM (PC-9 [6]): 70%
inhibition [8]: 47.3%
inhibition at 10 µM (NCI-H226 [11]): 39.5%
inhibition at 10 µM (HCC827 [12]): 58%
inhibition [13]: 89.4%
inhibition at 10 µM (NCI-H1581 [14]): 38.1%

SMILES: COc1ccc(Nc2cc(NC(=O)Nc3c(Cl)cccc3Cl)ncn2)cc1C
inhibition [1]: 67.4%
inhibition at 10 µM (NCI-H520 [4]): 29.1%
inhibition [5]: 47.3%
inhibition at 10 µM (PC-9 [6]): 80.1%
inhibition [8]: 50.4%
inhibition at 10 µM (NCI-H226 [11]): 50%
inhibition at 10 µM (HCC827 [12]): 63.1%
inhibition [13]: 76.4%
inhibition at 10 µM (NCI-H1581 [14]): 45%

SMILES: COc1cc(NC(=O)Nc2cc(Nc3cc(C)cc(F)c3)ncn2)cc(OC)c1
inhibition [1]: 16.7%
inhibition at 10 µM (NCI-H520 [4]): 24.5%
inhibition [5]: 8%
inhibition at 10 µM (PC-9 [6]): 64.5%
inhibition [8]: 1.1%
inhibition at 10 µM (NCI-H226 [11]): 35.3%
inhibition at 10 µM (HCC827 [12]): 62%
inhibition [13]: 23.1%
inhibition at 10 µM (NCI-H1581 [14]): 28.3%

SMILES: CCc1ccc(Nc2cc(NC(=O)Nc3cc(OC)cc(OC)c3)ncn2)cc1
inhibition [1]: 28.1%
inhibition at 10 µM (NCI-H520 [4]): 23.5%
inhibition [5]: 25.4%
inhibition at 10 µM (PC-9 [6]): 78%
inhibition [8]: 6.1%
inhibition at 10 µM (NCI-H226 [11]): 50.1%
inhibition at 10 µM (HCC827 [12]): 66.2%
inhibition [13]: 45.7%
inhibition at 10 µM (NCI-H1581 [14]): 32.7%
